Assay results published in ChEMBL document CHEMBL4359910, “From random to rational: A discovery approach to selective subnanomolar inhibitors of human carbonic anhydrase IV based on the Castagnoli-Cushman multicomponent reaction” (Eur J Med Chem, 2019).

What was measured:
T98G = assay: Cytotoxicity against human T98G cells measured after 48 hrs under normoxia condition in presence of CoCl2 by MTT assay; type: functional, cell-based
ARPE-19 [1] = assay: Cytotoxicity against human ARPE19 cells at 30 to 300 uM measured after 48 hrs under normoxia condition in presence of CoCl2 by MTT assay relative to control; type: cell-based; settings: arpe-19, 48 h
ARPE-19 [2] = assay: Cytotoxicity against human ARPE19 cells at 300 uM measured after 48 hrs under normoxia condition in presence of CoCl2 by MTT assay; type: cell-based; settings: arpe-19, 48 h

SMILES | Activity (T98G) | Activity (ARPE-19 [1]) [%] | Activity (ARPE-19 [2])
CC(=O)OCCNC(=O)[C@H]1CC(=O)N(c2ccc(S(N)(=O)=O)cc2)[C@@H]1c1ccc(Cl)cc1 | Dose-dependent effect | 80 | –
NS(=O)(=O)c1ccc(N2C(=O)C[C@H](C(=O)NCCCn3ccnc3)[C@H]2c2ccc(Cl)cc2)cc1 (racemic) | Dose-dependent effect | 80 | –
CN1CCN(CCCNC(=O)[C@H]2CC(=O)N(c3ccc(S(N)(=O)=O)cc3)[C@@H]2c2ccc(Cl)cc2)CC1 (racemic) | Dose-dependent effect | – | Toxic
NS(=O)(=O)c1ccc(N2C(=O)C[C@H](C(=O)NCCC(=O)O)[C@H]2c2ccc(Cl)cc2)cc1 (racemic) | Dose-dependent effect | – | –
NS(=O)(=O)c1ccc(N2C(=O)C[C@H](C(=O)NCCCN3CCCC3)[C@H]2c2ccc(Cl)cc2)cc1 (racemic) | Dose-dependent effect | 80 | –
NS(=O)(=O)c1ccc(N2C(=O)C[C@H](C(=O)NCCCO)[C@H]2c2ccc(Cl)cc2)cc1 (racemic) | Dose-dependent effect | – | –
